According to BindingDB's records for doi:10.1021/jm00058a003 (Upjohn Laboratories, 1993):

Biological target: 5-HT1A receptor (Bos taurus)
Assay: In vitro binding affinity towards [3H]8-OH-DPAT-labeled 5-hydroxytryptamine 1A receptor sites in bovine hippocampus.

Ki [nM]	Structure (SMILES)
9.3	CCCN[C@@H]1CCc2cccc(OC)c2[C@H]1CC1CC1 (relative stereo) [(trans)-(1-Cyclopropylmethyl-8-methoxy-1,2,3,4-tetrahydro-naphthalen-2-yl)-propyl-amine]
15	CCCN[C@@H]1CCc2cccc(OC)c2[C@@H]1CC1CC1 [(1-Cyclopropylmethyl-8-methoxy-1,2,3,4-tetrahydro-naphthalen-2-yl)-propyl-amine]
> 1000	C=CC[C@@H]1c2cccc(OC)c2CC[C@H]1NCCC (relative stereo) [(trans)-(1-Allyl-5-methoxy-1,2,3,4-tetrahydro-naphthalen-2-yl)-propyl-amine]
152	C=CCN[C@@H]1CCc2ccccc2[C@@H]1CC=C [Allyl-(1-allyl-1,2,3,4-tetrahydro-naphthalen-2-yl)-amine]
> 1000	C=CC[C@@H]1c2ccccc2CC[C@H]1NCCC (relative stereo) [(trans)-(1-Allyl-1,2,3,4-tetrahydro-naphthalen-2-yl)-propyl-amine]
11	CCCN[C@@H]1CCc2cccc(OC)c2[C@@H]1CCC [(8-Methoxy-1-propyl-1,2,3,4-tetrahydro-naphthalen-2-yl)-propyl-amine]
6.3	C=CC[C@H]1c2c(cccc2OC)CC[C@H]1N(CCC)CCC [(1-Allyl-8-methoxy-1,2,3,4-tetrahydro-naphthalen-2-yl)-dipropyl-amine]
9.4	C=CCN[C@@H]1CCc2cccc(OC)c2[C@@H]1CC1CC1 [Allyl-(1-cyclopropylmethyl-8-methoxy-1,2,3,4-tetrahydro-naphthalen-2-yl)-amine]
19	C=CC[C@@H]1c2c(cccc2OC)CC[C@H]1NCCC (relative stereo) [(trans)-(1-Allyl-8-methoxy-1,2,3,4-tetrahydro-naphthalen-2-yl)-propyl-amine]
1.8	C=CC[C@H]1c2c(cccc2OC)CC[C@H]1NCCC [(1-Allyl-8-methoxy-1,2,3,4-tetrahydro-naphthalen-2-yl)-propyl-amine]
0.5	C=CC[C@H]1c2c(O)cccc2CC[C@H]1NCCC [8-Allyl-7-propylamino-5,6,7,8-tetrahydro-naphthalen-1-ol]

Continued, compound first:

Structure (SMILES)	Ki [nM]
C=CC[C@H]1c2ccccc2CC[C@H]1NCCC [(1-Allyl-1,2,3,4-tetrahydro-naphthalen-2-yl)-propyl-amine]	174
C=CCN[C@@H]1CCc2ccccc2[C@H]1CC=C (relative stereo) [(trans)-Allyl-(1-allyl-1,2,3,4-tetrahydro-naphthalen-2-yl)-amine]	> 1000
C=CC[C@@H]1c2c(cccc2OC)CC[C@H]1NCC1CC1 (relative stereo) [(trans)-(1-Allyl-8-methoxy-1,2,3,4-tetrahydro-naphthalen-2-yl)-cyclopropylmethyl-amine]	4.1
C=CCN[C@@H]1CCc2cccc(OC)c2[C@H]1CC1CC1 (relative stereo) [(trans)-Allyl-(1-cyclopropylmethyl-8-methoxy-1,2,3,4-tetrahydro-naphthalen-2-yl)-amine]	15
C=CC[C@H]1c2c(cccc2OC)CC[C@H]1NCC1CC1 [(1-Allyl-8-methoxy-1,2,3,4-tetrahydro-naphthalen-2-yl)-cyclopropylmethyl-amine]	2.9
C=CCN[C@@H]1CCc2cccc(O)c2[C@@H]1CC=C [8-Allyl-7-allylamino-5,6,7,8-tetrahydro-naphthalen-1-ol]	1
CCCN(C)[C@@H]1CCc2cccc(OC)c2[C@@H]1CO [[8-Methoxy-2-(methyl-propyl-amino)-1,2,3,4-tetrahydro-naphthalen-1-yl]-methanol]	5
C=CC[C@H]1c2cccc(OC)c2CC[C@H]1NCCC [(1-Allyl-5-methoxy-1,2,3,4-tetrahydro-naphthalen-2-yl)-propyl-amine]	> 1000
CCCN[C@@H]1CCc2cccc(OC)c2[C@@H]1CO [(8-Methoxy-2-propylamino-1,2,3,4-tetrahydro-naphthalen-1-yl)-methanol]	5.4
